Experimental data as given in patent US9969762B2.
≈ marks a conversion by molar mass, not a printed value. Read-outs that look alike come from different tables or passages of the source.

What was measured:
[1] = test system: Pectobacterium atrosepticum; test: Antibacterial activity (MIC and MBC) in TY medium; format: cell-based; settings: 36 h of culture at 30° C.; for MIC: TY medium; for MBC: plated on TY agar
[2] = test system: Agrobacterium tumefaciens; test: Antibacterial activity (MIC and MBC) in TY medium; format: cell-based; settings: 36 h of culture at 30° C.; for MIC: TY medium; for MBC: plated on TY agar
Dickeya dianthicola = test: Antibacterial activity (MIC and MBC) in TY medium; format: cell-based; settings: 36 h of culture at 30° C.; for MIC: TY medium; for MBC: plated on TY agar
Phytophthora infestans = test: microbe, parasite or virus in culture; format: cell-based; settings: for Average diameters of inhibition zone: after 6 days, 20 mg in 200 μl distilled water, spots of 10 μl
[3] = test system: Agrobacterium tumefaciens, Pectobacterium atrosepticum and Dickeya dianthicola bacteria; test: Antibacterial activity, summary statements over the bacteria tested; format: cell-based; settings: for inhibition of the growth of the bacteria (in words): after 36 h of incubation at 30° C., compared with 4-NPO
Fusarium roseum = settings: compound in methanol, more than 10 days at 20° C.
Description: (§1) The antifungal activity of the N-alkyl-glycosyl(di)amine derivatives of formula (I) and of the N-alkyl-glycamine derivatives of formula (III) synthesized according to the process of the invention was evaluated on two fungi: Fusarium roseum and Fusarium sambucinum.
(§2) For this, 500 μl of solution comprising the test derivative, dissolved in DMSO or methanol, are mixed with 19.5 ml of malt agar medium (Sigma aldrich) allowing the growth of these two Fusarium isolates. The test derivative is prepared in 2 ml of methanol, then mixed with 18 ml of malt agar medium (Sigma aldrich). A spot of 10 μl of culture of each Fusarium is then deposited at the center of each Petri dish. After 10 days of incubation at 20° C., the growth diameters are measured.
(§3) The range of concentrations of N-alkyl-glycosyl(di)amine derivatives of formula (I) tested ranges from 0.1 to 25 μmol/ml.
(§4) The Fusarium growth on media containing the various molecules is compared with that obtained only with DMSO or methanol.
(§5) The same antifungal evaluation protocol as the one previously described with the compound Ij was applied for other N-alkyl-glycosyl(di)amine derivatives of formula (I) and N-alkyl-glycamine derivatives of formula (III) at concentrations ranging from 1 to 20 μmol/ml.
(§6) 2 ml of solution comprising the test compound dissolved in methanol are mixed with 18 ml of agar malt medium (Sigma aldrich) allowing the growth of these two Fusarium isolates. A spot of 10 μl of culture of each Fusarium is then deposited at the center of each Petri dish. After more than 10 days of incubation at 20° C., the growth diameters are measured.

Fusarium sambucinum = settings: compound in methanol, more than 10 days at 20° C.
Description: as §1, §2, §3, §4, §5, §6

Structure (SMILES) | MIC [1] [µg/mL] | MBC [1] [µg/mL] | MIC [2] [µg/mL] | MBC [2] [µg/mL] | MIC (Dickeya dianthicola) [µg/mL] | MBC (Dickeya dianthicola) [µg/mL] | Average diameters of inhibition zone (Phytophthora infestans) [mm] | bactericidal activity (in words) [3] | inhibition of the growth of the bacteria (in words) [3] | Inhibition of the growth of the Fusarium roseum fungi (Fusarium roseum; 1 μmol/ml) [%] | Inhibition of the growth of the Fusarium roseum fungi (Fusarium roseum; 2.5 μmol/ml) [%] | Inhibition of the growth of the Fusarium roseum fungi (Fusarium roseum; 5 μmol/ml) [%] | Inhibition of the growth of the Fusarium sambucinum fungi (Fusarium sambucinum; 1 μmol/ml) [%] | Inhibition of the growth of the Fusarium sambucinum fungi (Fusarium sambucinum; 2.5 μmol/ml) [%] | Inhibition of the growth of the Fusarium sambucinum fungi (Fusarium sambucinum; 5 μmol/ml) [%] | further results
CCCCCCCCCCCCNCC(O)C(O)C(O)C(O)CO (stereo not shown) [compound IIIb] | 32 (≈ 91.6 µM) | 32 (≈ 91.6 µM) | 16 (≈ 45.8 µM) | 32 (≈ 91.6 µM) | 62.5 (≈ 179 µM) | 62.5 (≈ 179 µM) | 20 | showed a bactericidal activity | inhibition of the growth of the bacteria was observed | 100 | 100 | 100 | 96 | 96 | 100 | –
CCCCCCCCCCCCNCC(O)C(O)C(O)C(O)CO (stereo not shown) [compound IIIc] | 62.5 (≈ 179 µM) | 62.5 (≈ 179 µM) | >500 | >500 | >500 | >500 | 18 | showed a bactericidal activity | inhibition of the growth of the bacteria was observed | 100 | 100 | 100 | 98 | 100 | 100 | –
CCCCCNC1OC(C)[C@H](O)C(O)C1O (stereo partly shown) [compound Ie] | 16 (≈ 68.6 µM) | 16 (≈ 68.6 µM) | 4 (≈ 17.1 µM) | 8 (≈ 34.3 µM) | – | – | – | showed a bactericidal activity | inhibition of the growth of the bacteria was observed | 94 | 96 | 100 | 95 | 96 | 100 | MIC (Dickeya dianthicola; Dickeya dianthicola, read-out: MIC): 16 µg/mL (≈ 68.6 µM); MBC (Dickeya dianthicola; Dickeya dianthicola, read-out: MBC): 16 µg/mL (≈ 68.6 µM); zone of inhibition at 20000 µg/disc (Phytophthora infestans; Phytophthora infestans, 144 h, read-out: Average diameters of inhibition zone): 21 mm; Inhibition of the growth of the Fusarium roseum fungi (Fusarium roseum; 10 μmol/ml): 100%; Inhibition of the growth of the Fusarium roseum fungi (Fusarium roseum; 20 μmol/ml): 100%; Inhibition of the growth of the Fusarium sambucinum fungi (Fusarium sambucinum; 10 μmol/ml): 100%; Inhibition of the growth of the Fusarium sambucinum fungi (Fusarium sambucinum; 20 μmol/ml): 100%
